Measurements taken from ChEMBL document CHEMBL1759972, “Phenoxyacetic acids as PPARδ partial agonists: synthesis, optimization, and in vivo efficacy” (Bioorg Med Chem Lett, 2011).
Values after ≈ are worked out from the molar mass of the structure shown. Active and inactive are the calls of the source. The rule behind the calls is not given here.

Experiments:
[1] = target: T1, Peroxisome proliferator-activated receptor alpha (Homo sapiens, UniProt Q07869); assay: Displacement of [3H]GW 2433 from human PPARalpha by scintillation proximity assay
T1 sequence (Q07869 whole entry): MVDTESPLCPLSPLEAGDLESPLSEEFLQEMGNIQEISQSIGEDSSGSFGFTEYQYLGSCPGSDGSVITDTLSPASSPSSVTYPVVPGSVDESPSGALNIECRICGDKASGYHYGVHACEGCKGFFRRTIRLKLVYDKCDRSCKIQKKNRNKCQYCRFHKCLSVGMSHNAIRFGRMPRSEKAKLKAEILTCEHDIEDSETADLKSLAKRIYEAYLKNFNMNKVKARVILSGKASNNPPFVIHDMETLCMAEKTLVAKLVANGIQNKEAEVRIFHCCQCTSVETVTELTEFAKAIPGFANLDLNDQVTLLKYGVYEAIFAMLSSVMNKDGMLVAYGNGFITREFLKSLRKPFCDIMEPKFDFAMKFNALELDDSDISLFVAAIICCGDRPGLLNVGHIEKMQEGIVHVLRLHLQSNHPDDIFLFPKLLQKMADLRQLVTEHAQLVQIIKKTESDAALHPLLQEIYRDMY

[2] = target: T2, Peroxisome proliferator-activated receptor delta (Homo sapiens, UniProt Q03181)
T2 sequence (Q03181 whole entry): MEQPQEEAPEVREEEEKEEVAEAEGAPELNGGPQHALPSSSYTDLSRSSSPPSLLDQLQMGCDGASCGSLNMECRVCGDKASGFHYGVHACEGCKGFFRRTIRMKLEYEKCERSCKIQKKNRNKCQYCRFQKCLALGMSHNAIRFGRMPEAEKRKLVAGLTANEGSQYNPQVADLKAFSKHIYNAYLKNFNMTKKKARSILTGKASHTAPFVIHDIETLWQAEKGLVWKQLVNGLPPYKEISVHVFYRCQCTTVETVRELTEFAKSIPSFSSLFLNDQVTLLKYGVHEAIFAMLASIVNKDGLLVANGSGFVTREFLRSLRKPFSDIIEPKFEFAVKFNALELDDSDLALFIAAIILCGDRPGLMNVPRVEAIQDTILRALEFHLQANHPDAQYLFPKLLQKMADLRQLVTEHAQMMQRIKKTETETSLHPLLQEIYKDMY
Description: Displacement of [3H]GW 2433 from human PPARdelta by scintillation proximity assay

Cytochrome P450 2C19 = Cytochrome P450 2C19 (Homo sapiens, UniProt P33261); assay: Inhibition of CYP2C19; assay type: ADME
Cytochrome P450 3A4 = Cytochrome P450 3A4 (Homo sapiens, UniProt P08684); assay: Inhibition of CYP3A4; assay type: ADME
Cytochrome P450 1A2 = target: T3, Cytochrome P450 1A2 (Homo sapiens, UniProt P05177); assay: Inhibition of CYP1A2; assay type: ADME
T3 sequence (P05177 whole entry): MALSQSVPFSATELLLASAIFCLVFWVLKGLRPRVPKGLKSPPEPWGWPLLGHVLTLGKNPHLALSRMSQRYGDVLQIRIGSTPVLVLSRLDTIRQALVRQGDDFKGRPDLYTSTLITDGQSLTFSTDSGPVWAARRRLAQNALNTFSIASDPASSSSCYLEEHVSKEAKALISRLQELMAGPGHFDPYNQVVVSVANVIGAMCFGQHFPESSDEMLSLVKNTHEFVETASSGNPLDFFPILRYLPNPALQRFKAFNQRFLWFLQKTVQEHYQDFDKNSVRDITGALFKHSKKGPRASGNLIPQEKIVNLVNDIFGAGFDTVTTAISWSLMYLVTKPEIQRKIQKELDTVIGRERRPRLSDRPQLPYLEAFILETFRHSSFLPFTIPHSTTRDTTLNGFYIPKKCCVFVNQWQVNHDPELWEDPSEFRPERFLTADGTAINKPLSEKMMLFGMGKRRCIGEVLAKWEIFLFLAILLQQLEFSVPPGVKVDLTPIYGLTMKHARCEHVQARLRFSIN

[3] = target: T2, Peroxisome proliferator-activated receptor delta; assay: Induction of human PPARdelta-mediated CPT1a gene expression in human skeletal muscle; assay type: tissue-based, Muscle tissue
[4] = Permeability across artificial membrane; assay type: ADME; conditions: PAMPA; read-out: permeability
[5] = target: T2, Peroxisome proliferator-activated receptor delta; assay: Induction of human PPARdelta-mediated PDK4 gene expression in human skeletal muscle; assay type: tissue-based, Muscle tissue
[6] = Half life in CD mouse at 10 mg/kg, po; assay type: ADME, organism-based; parameters: dose 10 mg/kg, route oral; conditions: in vivo
Mus musculus [7] = assay: Antidiabetic activity in fasting insulin-resistant ob/ob mouse assessed as decrease in body weight gain at 100 mg/kg, po administered once daily for 15 days; assay type: functional, organism-based; parameters: dose 100 mg/kg
[8] = Aqueous solubility of the compound; assay type: physicochemical
[9] = target: T4, Peroxisome proliferator-activated receptor gamma (Homo sapiens, UniProt P37231)
T4 sequence (P37231 whole entry): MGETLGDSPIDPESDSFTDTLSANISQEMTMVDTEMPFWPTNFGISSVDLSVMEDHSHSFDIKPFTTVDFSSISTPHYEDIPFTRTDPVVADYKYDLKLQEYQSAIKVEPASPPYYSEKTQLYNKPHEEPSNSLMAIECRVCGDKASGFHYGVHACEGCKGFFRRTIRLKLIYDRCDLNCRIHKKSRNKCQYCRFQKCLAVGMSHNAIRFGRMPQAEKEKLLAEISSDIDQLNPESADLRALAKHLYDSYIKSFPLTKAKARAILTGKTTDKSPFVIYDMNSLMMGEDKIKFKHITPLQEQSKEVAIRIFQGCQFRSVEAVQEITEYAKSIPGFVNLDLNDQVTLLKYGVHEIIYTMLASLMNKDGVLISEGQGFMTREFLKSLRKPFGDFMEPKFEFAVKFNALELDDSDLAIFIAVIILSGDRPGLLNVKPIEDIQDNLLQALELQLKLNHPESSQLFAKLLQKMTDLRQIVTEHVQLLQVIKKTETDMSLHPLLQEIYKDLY
Description: Displacement of [3H]GW 2433 from human PPARgamma by scintillation proximity assay

[10] = AUC (0 to infinity) in CD mouse at 10 mg/kg, po; assay type: ADME, organism-based; parameters: time infinity, dose 10 mg/kg, route oral; conditions: plasma
Cytochrome P450 2C9 = Cytochrome P450 2C9 (Homo sapiens, UniProt P11712); assay: Inhibition of CYP2C9; assay type: ADME
Mus musculus [11] = assay: Antidiabetic activity in fasting insulin-resistant ob/ob mouse assessed as improvement in glucose sensitivity at 30 mg/kg, po administered once daily for 15 days measured on day 12 of dosing by OGTT method; assay type: functional, organism-based; parameters: dose 30 mg/kg
[12] = target: T2, Peroxisome proliferator-activated receptor delta; remark: listed apart in the source
Description: Partial agonist activity at human PPARdelta expressed in african green monkey CV1 cells transfected with Gal4 assessed as beta-galactosidase activity by transactivation assay

Liver microsomes = assay: Intrinsic clearance in human liver microsomes; assay type: ADME, Microsome
Mus musculus [13] = assay: Antidiabetic activity in po dosed fasting insulin-resistant ob/ob mouse assessed as improvement in glucose sensitivity administered once daily for 15 days measured on day 12 of dosing by OGTT method; assay type: functional, organism-based
Cytochrome P450 2D6 = Cytochrome P450 2D6 (Homo sapiens, UniProt P10635); assay: Inhibition of CYP2D6; assay type: ADME
Mus musculus [14] = assay: Dose normalized AUC (0 to 24 hrs) in CD mouse at 10 mg/kg, po; assay type: ADME, organism-based; parameters: time < 24 hr, dose 10 mg/kg, route oral; conditions: in vivo

Sequence of Cytochrome P450 2C19 (P33261 whole entry): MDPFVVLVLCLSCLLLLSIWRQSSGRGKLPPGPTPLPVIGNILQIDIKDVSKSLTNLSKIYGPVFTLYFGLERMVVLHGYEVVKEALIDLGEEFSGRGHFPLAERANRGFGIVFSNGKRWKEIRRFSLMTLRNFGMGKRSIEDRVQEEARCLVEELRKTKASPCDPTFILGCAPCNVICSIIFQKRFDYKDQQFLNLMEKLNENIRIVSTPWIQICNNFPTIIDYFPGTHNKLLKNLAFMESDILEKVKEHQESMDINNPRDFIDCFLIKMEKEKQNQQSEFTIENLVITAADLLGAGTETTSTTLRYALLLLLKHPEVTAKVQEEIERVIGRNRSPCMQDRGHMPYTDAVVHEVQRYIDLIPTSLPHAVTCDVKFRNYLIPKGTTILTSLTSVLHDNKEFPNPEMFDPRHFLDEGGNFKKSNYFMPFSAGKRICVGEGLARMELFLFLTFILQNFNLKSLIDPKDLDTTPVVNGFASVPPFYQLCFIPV
Sequence of Cytochrome P450 2D6 (P10635 whole entry): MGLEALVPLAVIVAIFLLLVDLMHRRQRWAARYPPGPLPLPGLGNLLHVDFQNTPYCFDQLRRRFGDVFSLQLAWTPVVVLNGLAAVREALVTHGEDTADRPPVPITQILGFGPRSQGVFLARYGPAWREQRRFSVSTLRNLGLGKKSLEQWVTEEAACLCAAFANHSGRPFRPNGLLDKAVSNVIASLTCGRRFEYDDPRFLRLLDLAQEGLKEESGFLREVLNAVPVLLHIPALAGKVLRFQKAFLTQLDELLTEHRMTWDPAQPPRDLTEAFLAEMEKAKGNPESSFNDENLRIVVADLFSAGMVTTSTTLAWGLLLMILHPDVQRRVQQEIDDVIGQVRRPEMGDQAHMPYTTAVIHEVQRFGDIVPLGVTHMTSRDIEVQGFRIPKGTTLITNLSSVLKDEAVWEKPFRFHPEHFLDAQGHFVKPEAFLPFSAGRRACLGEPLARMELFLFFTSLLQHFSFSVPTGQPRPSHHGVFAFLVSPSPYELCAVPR
Sequence of Cytochrome P450 3A4 (P08684 whole entry): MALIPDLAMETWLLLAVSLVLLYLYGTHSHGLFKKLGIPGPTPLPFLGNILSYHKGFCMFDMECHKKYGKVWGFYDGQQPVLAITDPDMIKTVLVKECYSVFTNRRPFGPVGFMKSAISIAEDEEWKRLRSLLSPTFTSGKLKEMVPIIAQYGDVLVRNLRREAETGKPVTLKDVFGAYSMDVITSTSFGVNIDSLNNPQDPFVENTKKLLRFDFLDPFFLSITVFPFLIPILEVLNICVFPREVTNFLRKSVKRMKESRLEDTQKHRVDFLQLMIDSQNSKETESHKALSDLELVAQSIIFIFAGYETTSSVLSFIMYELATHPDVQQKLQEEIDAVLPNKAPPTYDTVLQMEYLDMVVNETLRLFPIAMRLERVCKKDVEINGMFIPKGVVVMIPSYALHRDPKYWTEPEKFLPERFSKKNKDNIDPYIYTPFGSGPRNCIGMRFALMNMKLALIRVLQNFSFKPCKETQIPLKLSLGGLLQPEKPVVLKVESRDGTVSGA
Sequence of Cytochrome P450 2C9 (P11712 whole entry): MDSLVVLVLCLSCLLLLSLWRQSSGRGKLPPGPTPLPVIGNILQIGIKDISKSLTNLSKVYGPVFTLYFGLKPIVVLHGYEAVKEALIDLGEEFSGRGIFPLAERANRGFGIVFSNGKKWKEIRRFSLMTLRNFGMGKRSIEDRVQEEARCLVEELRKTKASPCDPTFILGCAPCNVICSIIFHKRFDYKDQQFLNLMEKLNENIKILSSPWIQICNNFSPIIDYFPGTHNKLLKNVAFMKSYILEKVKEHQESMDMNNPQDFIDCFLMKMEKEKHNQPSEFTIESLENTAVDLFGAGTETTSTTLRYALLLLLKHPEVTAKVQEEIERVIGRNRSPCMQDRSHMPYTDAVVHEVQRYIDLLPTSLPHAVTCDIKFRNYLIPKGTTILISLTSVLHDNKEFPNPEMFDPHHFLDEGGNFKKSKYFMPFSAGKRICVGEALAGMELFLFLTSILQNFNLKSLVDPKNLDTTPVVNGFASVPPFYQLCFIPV

| Structure (SMILES) | IC50 [1] [µM] | IC50 [2] [µM] | IC50 (Cytochrome P450 2C19) [µM] | IC50 (Cytochrome P450 3A4) [µM] | IC50 (Cytochrome P450 1A2) [µM] | EC50 [3] [µM] | Papp [4] [×10⁻⁶ cm/s] | EC50 [5] [µM] | half-life [6] [h] | Activity (Mus musculus [7]) | solubility [8] [µM] | IC50 [9] [µM] | AUC(0-inf) [10] [ng·h/mL] | IC50 (Cytochrome P450 2C9) [µM] | Activity (Mus musculus [11]) | EC50 [12] [µM] | CL (Liver microsomes) [µL/min/mg] | Activity (Mus musculus [13]) | IC50 (Cytochrome P450 2D6) [µM] | AUC (Mus musculus [14]) [ng·h/mL/mg/kg] |
| --- | --- | --- | --- | --- | --- | --- | --- | --- | --- | --- | --- | --- | --- | --- | --- | --- | --- | --- | --- | --- |
| CCCCN(c1cccc(-c2ccc(C(F)(F)F)cc2)c1Cl)S(=O)(=O)c1ccc(OC(C)C(=O)O)c(C)c1C (configuration not stated) | 7.94 | 0.00631 | > 3.16 | > 3.16 | > 3.16 | 0.00398 | 25 | 0.01 | 4.3 | Active | 140 (≈ 81.8 µg/mL) | 6.31 | 2480 | 0.794 | Active | 0.00251 | 18 | Dose-dependent effect | > 3.16 |  |
| CCCCN(c1cccc(-c2ccc(Cl)cc2)c1C)S(=O)(=O)c1ccc(OC(C)C(=O)O)c(C)c1C (configuration not stated) | 20 | 0.0501 |  |  |  |  |  |  |  |  |  |  |  |  |  | 0.0251 |  |  |  | 575 |
| CCCCN(c1cccc(-c2ccc(OC(F)(F)F)cc2)c1Cl)S(=O)(=O)c1ccc(OC(C)C(=O)O)c(C)c1C (configuration not stated) | 10 | 0.0158 | > 3.16 | > 3.16 | > 3.16 | 0.01 | 25 | 0.0251 | 5.4 | Active | 140 (≈ 84 µg/mL) | 6.31 | 5870 | 0.794 | Active | 0.00251 | 28 | Dose-dependent effect | > 3.16 |  |
